The text below walks through data of patent US20240336593A1, “Compound Having Antitumor Activity And Use Thereof” (lnnovStoneTherapeutics Limited, priority 2020, published 2024).

Structures can show the parent of a compound that is named as a salt.

PRMT5, sequence (O14744 whole entry): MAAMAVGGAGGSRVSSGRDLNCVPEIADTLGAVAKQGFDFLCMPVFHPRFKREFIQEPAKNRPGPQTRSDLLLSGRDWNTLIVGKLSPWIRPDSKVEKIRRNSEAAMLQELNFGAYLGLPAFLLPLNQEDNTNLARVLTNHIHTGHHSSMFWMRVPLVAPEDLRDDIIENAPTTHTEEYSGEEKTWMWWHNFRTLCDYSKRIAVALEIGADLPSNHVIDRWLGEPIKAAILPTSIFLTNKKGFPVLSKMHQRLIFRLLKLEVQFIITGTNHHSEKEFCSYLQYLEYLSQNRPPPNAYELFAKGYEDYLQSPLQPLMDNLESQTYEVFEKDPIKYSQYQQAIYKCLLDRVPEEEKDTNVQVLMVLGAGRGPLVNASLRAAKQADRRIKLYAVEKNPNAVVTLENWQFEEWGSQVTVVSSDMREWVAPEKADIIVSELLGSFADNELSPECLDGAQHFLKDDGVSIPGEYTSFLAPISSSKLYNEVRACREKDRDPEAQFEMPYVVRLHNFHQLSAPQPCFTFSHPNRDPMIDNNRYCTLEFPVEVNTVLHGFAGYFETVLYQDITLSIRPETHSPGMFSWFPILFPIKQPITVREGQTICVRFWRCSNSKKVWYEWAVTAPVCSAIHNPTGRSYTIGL
PRMT5, sequence (Q9BQA1 whole entry partner): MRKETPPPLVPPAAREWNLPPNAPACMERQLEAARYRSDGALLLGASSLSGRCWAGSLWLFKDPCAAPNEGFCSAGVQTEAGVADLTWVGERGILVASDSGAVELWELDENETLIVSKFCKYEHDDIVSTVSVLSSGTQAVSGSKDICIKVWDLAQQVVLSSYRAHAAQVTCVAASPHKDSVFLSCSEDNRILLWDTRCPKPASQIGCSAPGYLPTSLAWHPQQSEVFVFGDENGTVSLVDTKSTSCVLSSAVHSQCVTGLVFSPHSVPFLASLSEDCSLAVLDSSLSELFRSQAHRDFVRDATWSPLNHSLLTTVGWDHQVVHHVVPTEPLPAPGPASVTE

In this test the target is PRMT5 (Homo sapiens (Human), UniProt O14744). Kind of test: Inhibitory activity against PRMT5 enzyme by radioisotopic method. Type of test: biochemical. Particulars: PRMT5 5 nM, [3H]-SAM 0.3 μM, polypeptide substrate GL-27 100 nM, room temperature. Summed up:
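PRMT5 (5 nM) preincubated with compound and [3H]-SAM (0.3 μM) 60 min at RT in Tris pH 8.0/Tween-20/DTT, 1% DMSO; biotinylated GL-27 peptide (100 nM) added, 120 min RT, stopped with cold SAM. Peptide captured on streptavidin FlashPlate, CPM counted; IC50 from four-parameter fit of % inhibition.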
For `O=C(c1cc(NC2CCOCC2)ncn1)N1CC[C@H](N2CCc3ccccc3C2)[C@@H](O)C1` [Example 109], the concentration for half-maximal inhibition (IC50) was < 100 nM. In the case of `CC(=O)N1CCC(Nc2cc(C(=O)N3CC[C@H](N4CCc5ccccc5C4)[C@@H](O)C3)nc(-c3ccncc3)n2)CC1` [Example 139], the concentration for half-maximal inhibition (IC50) was < 100 nM. On to `O[C@H]1CN(c2cc(Nc3ccccc3C3CC3)ncn2)CC[C@@H]1N1CCc2ccccc2C1` (relative stereo) [Example 51, trans-4-(3,4-dihydroisoquinolin-2(1H)-yl)-1-(6-((2-cyclopropylphenyl)amino)pyrimidin-4-yl)piperidin-3-ol], for which the IC50 is < 100 nM. On to `O[C@@H]1CN(c2cc(Nc3ccc(N4CCCC4)cc3)ncn2)CC[C@H]1N1CCc2ccccc2C1` (relative stereo) [Example 95, trans-4-(3,4-dihydroisoquinolin-2(1H)-yl)-1-(6-((4-(pyrrolidin-1-yl)phenyl)amino)pyrimidin-4-yl)piperidin-3-ol], for which the IC50 is < 100 nM. Take `Cc1ccc(Nc2cc(N3CC[C@H](N4CCc5ccccc5C4)[C@@H](O)C3)ncn2)cc1` [Example 41, trans-1-(6-((4-methylphenyl)amino)pyrimidin-4-yl)-4-(3,4-dihydroisoquinolin-2(l H)-yl)piperidin-3-ol]: the 50% inhibitory concentration (IC50) was < 100 nM.

`O[C@@H]1CN(c2cc(Nc3cccc(N4CCOCC4)c3)ncn2)CC[C@H]1N1CCc2ccccc2C1` (relative stereo) [Example 73, trans-4-(3,4-dihydroisoquinolin-2(1H)-yl)-1-(6-((3-morpholinophenyl)amino)pyrimidin-4-yl)piperidin-3-ol]: the IC50 was < 100 nM.

Take `O[C@H]1CN(c2cc(Nc3ccc(C4CC4)cc3)ncn2)CC[C@@H]1N1CCc2ccccc2C1` (relative stereo) [Example 38, trans-1-(6-((4-cyclopropylphenyl)amino)pyrimidin-4-yl)-4-(3,4-dihydroisoquinolin-2(1H)-yl)piperidin-3-ol]: the IC50 was < 100 nM. As to `Cc1ccccc1Nc1cc(N2CC[C@H](N3CCc4ccccc4C3)[C@@H](O)C2)ncn1` (relative stereo) [Example 46, trans-1-(6-((2-methylphenyl)amino)pyrimidin-4-yl)-4-(3,4-dihydroisoquinolin-2(1H)-yl)piperidin-3-ol], the IC50 is < 100 nM. In the case of `CC(=O)N1CCC(Nc2cc(C(=O)N3CC[C@@H](N4CCc5ccccc5C4)[C@H](O)C3)nc(N3CCN(C)CC3)n2)CC1` [Example 149, 1-(4-((6-((3R,4R)-4-(3,4-dihydroisoquinolin-2(1H)-yl)-3-hydroxypiperidine-1-carbonyl)-2-(4-methylpiperazin-1-yl)pyrimidin-4-yl)amino)piperidin-1-yl)ethan-1-one], the IC50 was < 100 nM. For `COc1cc(F)ccc1Nc1cc(N2CC[C@H](N3CCc4ccccc4C3)[C@@H](O)C2)ncn1` (relative stereo) [Example 93, trans-4-(3,4-dihydroisoquinolin-2(1H)-yl)-1-(6-((4-fluoro-2-methoxyphenyl)amino)pyrimidin-4-yl)piperidin-3-ol], the IC50 is < 100 nM.

For the molecule `CC(=O)N1CCC(Nc2cc(C(=O)N3CC[C@H](O)[C@@H](N4CCc5ccccc5C4)CC3)ncn2)CC1` [Example 124, 1-(4-((6-((4S,5S)-4-(3,4-dihydroisoquinolin-2(1H)-yl)-5-hydroxyazepane-1-carbonyl)pyrimidin-4-yl)amino)piperidin-1-yl)ethan-1-one], the IC50 is < 100 nM. As for `CC(=O)N1CCC(Nc2cccc(C(=O)N3CC[C@H](N4CCc5ccccc5C4)[C@@H](O)C3)c2)CC1` (relative stereo) [Example 28, trans-1-(4-((3-(4-(3,4-dihydroisoquinolin-2(1H)-yl)-3-hydroxypiperidine-1-carbonyl)phenyl)amino)piperidin-1-yl)ethan-1-one], the IC50 was < 100 nM. Turning to `COc1cccc(Nc2cc(N3CC[C@H](N4CCc5ccccc5C4)[C@@H](O)C3)ncn2)c1` (relative stereo) [Example 47, trans-1-(6-((3-methoxyphenyl)amino)pyrimidin-4-yl)-4-(3,4-dihydroisoquinolin-2(1H)-yl)piperidin-3-ol], the 50% inhibitory concentration (IC50) is < 100 nM.

As for `COCC(=O)N1CCC(Nc2cc(C(=O)N3CC[C@H](N4CCc5ccccc5C4)[C@@H](O)C3)ncn2)CC1` (relative stereo) [Example 113, 1-(4-((6-(trans-4-(3,4-dihydroisoquinolin-2(1H)-yl)-3-hydroxypiperidine-1-carbonyl)pyrimidin-4-yl)amino)piperidin-1-yl)-2-methoxyethan-1-one], the IC50 was < 100 nM. As to `CNC(=O)c1cccc(Nc2cc(C(=O)N3CC[C@H](N4CCc5ccccc5C4)[C@@H](O)C3)ncn2)c1` (relative stereo) [Example 134, trans-3-((6-(4-(3,4-dihydroisoquinolin-2(1H)-yl)-3-hydroxypiperidine-1-carbonyl)pyrimidin-4-yl)amino)-N-methylbenzamide], the IC50 was < 100 nM. As for `CC(=O)N1CCC(Nc2cc(C(=O)N3CC[C@@H](N4CCc5ccccc5C4)[C@H](O)C3)nc(SC(C)C)n2)CC1` [Example 155, 1-(4-((6-((3R,4R)-4-(3,4-dihydroisoquinolin-2(1H)-yl)-3-hydroxy-piperidine-1-carbonyl)-2-(isopropylthio)pyrimidin-4-yl)amino)piperidin-1-yl)ethan-1-one hydrochloride], the IC50 was < 100 nM. With `CC(=O)N1CCC(Oc2cc(C(=O)N3CC[C@@H](N4CCc5ccccc5C4)[C@H](O)C3)ncn2)CC1` (relative stereo) [Example 142, trans-1-(4-((6-(4-(3,4-dihydroisoquinolin-2(1H)-yl)-3-hydroxypiperidine-1-carbonyl)pyrimidin-4-yl)oxy)piperidin-1-yl)ethan-1-one], the IC50 is < 100 nM. The figure for `O[C@H]1CN(c2cc(Nc3cccc(Cl)c3)ncn2)CC[C@@H]1N1CCc2ccccc2C1` (relative stereo) [Example 43, trans-1-(6-((3-chlorophenyl)amino)pyrimidin-4-yl)-4-(3,4-dihydroisoquinolin-2(1H)-yl)piperidin-3-ol] is < 100 nM; for `O=C(c1cc(Nc2ccccc2)ncn1)N1CC[C@H](N2CCc3ccccc3C2)[C@@H](O)C1` [Example 101] it is < 100 nM; for `COc1c(F)cccc1Nc1cc(N2CC[C@@H](N3CCc4ccccc4C3)[C@H](O)C2)ncn1` (relative stereo) [Example 88, trans-1-(6-((3-fluoro-2-methoxyphenyl)amino)pyrimidin-4-yl)-4-(3,4-dihydroisoquinolin-2(1H)-yl)piperidin-3-ol] it is < 100 nM. In the case of `O[C@@H]1CN(c2cc(Nc3ccccc3OCC(F)(F)F)ncn2)CC[C@H]1N1CCc2ccccc2C1` (relative stereo) [Example 91, trans-1-(6-((2-(2,2,2-trifluoroethoxy)phenyl)amino)pyrimidin-4-yl)-4-(3,4-dihydroisoquinolin-2(1H)-yl)piperidin-3-ol], the IC50 was < 100 nM. The figure for `CC(=O)N1CCC(CNc2cc(C(=O)N3CC[C@H](N4CCc5ccccc5C4)[C@@H](O)C3)ncn2)CC1` [Example 103] is < 100 nM; for `O[C@H]1CN(c2cc(Nc3cccc4c3OCO4)ncn2)CC[C@@H]1N1CCc2ccccc2C1` [Example 83, trans-1-(6-(benzo[d][1,3]dioxazol-4-ylamino)pyrimidin-4-yl)-4-(3,4-dihydroisoquinolin-2(1H)-yl)piperidin-3-ol] it is < 100 nM. The figure for `O[C@H]1CN(c2cc(Nc3ccc(F)cc3)ncn2)CC[C@@H]1N1CCc2ccccc2C1` (relative stereo) [Example 30, trans-4-(3,4-dihydroisoquinolin-2(1H)-yl)-1-(6-((4-fluorophenyl)amino)-pyrimidin-4-yl)piperidin-3-ol] is < 100 nM; for `CC(=O)N1CCC(Nc2cc(C(=O)N3CC[C@H](N4CCc5ccccc5C4)[C@@H](O)C3)nc(N(C)C)n2)CC1` (relative stereo) [Example 118, trans-1-(4-((6-(4-(3,4-dihydroisoquinolin-2(1H)-yl)-3-hydroxypiperidine-1-carbonyl)-2-(dimethylamino)pyrimidin-4-yl)amino)piperidin-1-yl)ethan-1-one] it is < 100 nM; for `O[C@@H]1CN(c2cc(Nc3cccc(N4CCCC4)c3)ncn2)CC[C@H]1N1CCc2ccccc2C1` (relative stereo) [Example 67, trans-4-(3,4-dihydroisoquinolin-2(1H)-yl)-1-(6-((3-(pyrrolidin-1-yl)phenyl)amino)pyrimidin-4-yl)piperidin-3-ol] it is < 100 nM.

On to `CC(=O)N1CCC(Nc2cc(C(=O)N3CC[C@H](N4CCc5ccccc5C4)[C@@H](O)C3)nc(N3CCOCC3)n2)CC1` (relative stereo) [Example 144, 1-(4-((6-(trans-4-(3,4-dihydroisoquinolin-2(1H)-yl)-3-hydroxypiperidine-1-carbonyl)-2-morpholinopyrimidin-4-yl)amino)piperidin-1-yl)ethan-1-one], for which the IC50 was < 100 nM.

For `CNC(=O)c1ccc(Nc2cc(C(=O)N3CC[C@H](N4CCc5ccccc5C4)[C@@H](O)C3)ncn2)cc1` (relative stereo) [Example 131, trans-4-((6-(4-(3,4-dihydroisoquinolin-2(1H)-yl)-3-hydroxypiperidine-1-carbonyl)pyrimidin-4-yl)amino)-N-methylbenzamide], the IC50 was < 100 nM.

Consider `COC(=O)N1CCC(Nc2cc(C(=O)N3CC[C@H](N4CCc5ccccc5C4)[C@@H](O)C3)ncn2)CC1` (relative stereo) [Example 123, methyl trans-4-((6-(4-(3,4-dihydroisoquinolin-2(1H)-yl)-3-hydroxypiperidine-1-carbonyl)pyrimidin-4-yl)amino)piperidine-1-carboxylate], for which the IC50 is < 100 nM. Take `O[C@H]1CN(c2cc(Nc3ccccc3C(F)(F)F)ncn2)CC[C@@H]1N1CCc2ccccc2C1` (relative stereo) [Example 58, trans-4-(3,4-dihydroisoquinolin-2(1H)-yl)-1-(6-((2-trifluoromethylphenyl)amino)pyrimidin-4-yl)piperidin-3-ol]: the IC50 was < 100 nM.

What is called IC50 is the point on the concentration scale where inhibition reaches its midpoint. A lower IC50 goes with inhibition by little substance.
